Among the data in PubChem BioAssay (NCI) are TGI values, retold here.

Common to all, as to experiment: NCI anticancer screen, dose series, 48 h
The test system of assay [1] is IGROV1 ovarian.
Assay [2] relates to RXF 393 renal.
Assay [3] relates to U251 CNS.
The subject of assay [4] is SK-MEL-2 melanoma.
In assay [5] the test system is HL-60(TB) leukemia.
The subject of assay [6] is NCI/ADR-RES ovarian.
The subject of assay [7] is SW-620 colon.
For assay [8], the system named is SF-539 CNS.
Assay [9] deals with A549 NSCLC.
Assay [10] concerns T-47D breast.
The subject of assay [11] is M14 melanoma.
Assay [12] relates to OVCAR-8 ovarian.
Assay [13] deals with SNB-75 CNS.
In assay [14] the test system is NCI-H226 lung.
The test system of assay [15] is KM12 colon.
Assay [16] concerns HCT-116 colon.
For assay [17], the system named is PC-3 prostate.
Assay [18] relates to UACC-62 melanoma.

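All cell lines were grown in 96-well plates and treated with compound for 48 hours. TGI: concentration producing complete growth inhibition.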 Where a SMILES comes first, the peptide text is derived from it. The star is where a group is joined. Boc = CC(C)(C)OC(=O)*

As to `CCOC(=O)CCC(NC(=O)c1ccc(Nc2cnc3cc(C(F)(F)F)ccc3n2)cc1)C(=O)OCC` (stereo not given), the TGI in assay [1] is > 100 µM; in assay [2], 9.64 µM; in assay [3] it was 15.3 µM; in [4], > 100 µM; in assay [5], > 100 µM; in assay [6], > 100 µM. In addition, the TGI in [7], in assay [8], in assay [9], in [10], in [11] and in [12] was > 100 µM throughout. Besides, the TGI in assay [13] is 5.91 µM; in assay [14], > 100 µM; in assay [15], > 100 µM; in assay [16], > 100 µM.

Turning to `CCOC(=O)/C(=C\c1ccnc2ccccc12)P(=O)(OCC)OCC`, the TGI in assay [1] stood at 4.33 µM; in [2] it was 4.41 µM; in assay [3], 9.51 µM; in assay [4], 4.49 µM; in assay [6] it was 5.9 µM; in assay [7], 5.27 µM. The TGI was 3.32 µM in [8]; 14.7 µM in assay [9]; 9.11 µM in assay [10]; 5.02 µM in assay [11]; 7.96 µM in [12]; 16.8 µM in assay [17]. For the same compound, the TGI in assay [18] was found to be 10.4 µM; in [13], 12 µM; in assay [14], 31.3 µM; in [15], 13.9 µM; in [16] it was 3.61 µM.

Consider `CCCC(=O)OCC1(CO)C/C(=C/CC(C(C)C)C(C)C)C(=O)O1` (stereo not given), for which the TGI in [1], in [2], in [3], in assay [4], in assay [6] and in assay [7] was > 100 µM throughout. In addition, the TGI in assay [9], in assay [10], in assay [12], in assay [17], in assay [18] and in [13] was > 100 µM each time. Besides, the TGI in [14], in [15] and in assay [16] was > 100 µM each time.

`CCCCCCCC/C=C\CCCCCCCC(=O)OC[C@]1(CO)CCC(=O)O1`: the TGI in assay [1], in assay [2], in [3], in assay [4], in assay [6] and in assay [7] was > 100 µM each time. Besides, the TGI in [9], in assay [10], in assay [11], in assay [12], in assay [17] and in assay [18] was > 100 µM in each case. The TGI in assay [13], in [14], in assay [15] and in assay [16] was > 100 µM each time.

As to `COc1ccc(/C=N/NC(=O)c2ccccc2Nc2ccccc2C(=O)N/N=C/c2ccc(OC)cc2)cc1`, the TGI in assay [1], in assay [2], in assay [3], in assay [4], in assay [6] and in assay [7] was > 100 µM throughout. Further, the TGI in assay [9], in assay [10], in [11], in assay [12], in assay [17] and in assay [18] was > 100 µM throughout. Also, the TGI in [13], in [14], in assay [15] and in assay [16] was > 100 µM each time.

As for `CCOc1ncn(-c2ccc(NC(=S)Nc3cnccn3)cc2)n1`, the TGI in assay [1], in assay [2], in assay [3], in assay [4], in assay [5] and in [6] was > 10 µM in each case. The TGI in assay [8], in [9], in [10], in [11], in assay [12] and in [18] was > 10 µM throughout. Also, the TGI in assay [13], in [14] and in assay [15] was > 10 µM in each case.

For the compound `COC(=O)CCCC(=O)NC1=C(Nc2ccccc2)C(=O)c2ccccc2C1=O`, the TGI came out at 30.2 µM in assay [1]; 29.3 µM in assay [3]; 34.2 µM in [4]; 49.7 µM in assay [5]; 56 µM in assay [6]; 52.4 µM in [7]. The TGI in assay [8] was 35 µM; in assay [9] it was 36.8 µM; in [10], 64.8 µM; in assay [11], 29.6 µM; in [12], > 100 µM; in [18], 11.9 µM. The TGI was 33.8 µM in [13], 20.2 µM in assay [15] and 32.7 µM in assay [16].

On to `C[n+]1c2ccccc2c(C(=O)NC(CCCN=C(N)N)C(=O)O)c2ccccc21` (stereo not given), for which the TGI in assay [1], in [3], in assay [4], in [6], in assay [7] and in assay [8] was > 100 µM in each case. The TGI in assay [9], in assay [10], in assay [11], in assay [12], in [17] and in [18] was > 100 µM each time. The TGI in [13], in [15] and in [16] was > 100 µM each time.

As for `CC(=O)/C=C(/C=N/O)c1ccccc1`, the TGI in [1], in assay [3], in assay [4], in [6], in assay [7] and in [8] was > 100 µM in each case. The TGI in assay [9], in assay [10], in [11], in assay [12], in [17] and in assay [18] was > 100 µM throughout. The TGI in assay [13], in [14], in [15] and in [16] was > 100 µM throughout.

In the case of `CSC1=C(C#N)C(=O)N(c2ccc(Cl)cc2)C(=O)C1C#N` (stereo not given), the TGI in [1], in assay [2], in assay [3], in assay [4], in assay [5] and in [7] was > 100 µM throughout. Further, the TGI in assay [8], in assay [9], in [10], in [11], in [17] and in assay [18] was > 100 µM throughout. The TGI in assay [14] and in [16] was > 100 µM in each case.

With `Nc1nc(N)c2ncn(-c3ccc(Cl)c(Cl)c3)c2n1`, the TGI in assay [1] was 64.6 µM; in assay [2] it was 50.8 µM; in assay [3] it was > 100 µM; in assay [4], 28 µM; in [6], > 100 µM; in assay [7] it was > 100 µM. The TGI in assay [8] was 67.6 µM; in [9] it was > 100 µM; in [10] it was > 100 µM; in assay [11] it was > 100 µM; in assay [12], > 100 µM; in assay [17] it was 82.1 µM. Further, the TGI in [18] is 43 µM; in [14], > 100 µM; in [15], 97.5 µM; in assay [16], 40.3 µM.

`O=S(Nc1ccccc1)c1ccc(-c2ccccc2)cc1` (stereo not given): the TGI in assay [1], in assay [3], in [5], in [6], in assay [7] and in assay [8] was > 100 µM throughout. Moreover, the TGI in assay [9], in [10], in [12], in assay [18], in assay [14] and in assay [15] was > 100 µM in each case. For the same compound, the TGI in assay [16] is > 100 µM.

For the compound `CC(C)(O)/C=C\P(C)(=O)c1ccccc1` (stereo not given), the TGI in assay [1], in assay [2], in [3], in assay [4], in assay [6] and in assay [7] was > 100 µM in each case. The TGI in [8], in assay [9], in [10], in [11], in [12] and in [17] was > 100 µM each time. In addition, the TGI in [18], in assay [13], in assay [14], in assay [15] and in assay [16] was > 100 µM each time.

For `COc1cc(C2=C(C)[C@@H]3CN(CC=C3c3ccc(Cl)cc3)C2)c(S(=O)(=O)O)cc1OC`, the TGI in [1], in assay [2], in assay [3], in [4], in [6] and in assay [7] was > 100 µM each time. The TGI in assay [9], in assay [10], in [11], in [12], in assay [17] and in [18] was > 100 µM each time. In addition, the TGI in [13], in assay [14], in assay [15] and in [16] was > 100 µM each time.

On to `COc1cc(OC)cc(-n2c(N)c(-c3nc4ccccc4s3)c3ccc([N+](=O)[O-])cc3c2=O)c1`, for which the TGI is > 100 µM in assay [3]; 13 µM in [5]; > 100 µM in [6]; > 100 µM in [7]; 37.5 µM in assay [8]; > 100 µM in assay [10]. Also, the TGI in assay [12], in assay [18], in assay [13], in assay [14], in assay [15] and in assay [16] was > 100 µM each time.

In the case of `Brc1cccc(Nc2ncnc3sc4c(c23)CCC(Nc2cccc(Br)c2)C4)c1` (stereo not given), the TGI in [1], in assay [2], in assay [3], in assay [4], in assay [6] and in assay [7] was > 100 µM in each case. The TGI in assay [9], in [10], in [11], in assay [12], in [17] and in assay [18] was > 100 µM each time. The TGI in assay [13], in assay [15] and in assay [16] was > 100 µM in each case.

For the compound `COC(=O)C(Cc1c[nH]c2ccccc12)NC(=O)C(Cc1c[nH]c2ccccc12)NC(=O)C(Cc1c[nH]c2ccccc12)NC(=O)OC(C)(C)C` (stereo not drawn) (Boc-Trp-Trp-Trp-OMe; configuration not given here), the TGI in [1] turned out to be 40.5 µM; in assay [2], 21 µM; in [3] it was 32.4 µM; in assay [4], 35.8 µM; in assay [5] it was 47.4 µM; in assay [7], 40.7 µM. The TGI in assay [9] was > 100 µM; in assay [10] it was 29.4 µM; in [11], > 100 µM; in assay [12], 38.8 µM; in [17], 30 µM; in [18] it was 38.3 µM. Further, the TGI in assay [13] was determined as 42 µM; in assay [14], 37.1 µM; in assay [15], 38.2 µM; in assay [16] it was 29.8 µM.
